Experimental findings from the supplement of paper PMC10307832 are described below.

Assay in all cases: relative viability (nuclei count vs DMSO), 5 days (fraction); higher = more cells survive
Compound in experiment [1]: CN(C)C[C@@H]1CCn2cc(c3ccccc32)C2=C(C(=O)NC2=O)c2cn(c3ccccc23)CCO1 [Ruboxistaurin] + CC1(C)CCC(c2ccc(Cl)cc2)=C(CN2CCN(c3ccc(C(=O)NS(=O)(=O)c4ccc(N[C@H](CCN5CCOCC5)CSc5ccccc5)c(S(=O)(=O)C(F)(F)F)c4)cc3)CC2)C1 [Navitoclax] (partner 0.5 µM)
Put shortly:
(§1)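 One day after seeding in 1536-well plates, lung cancer cell lines were dosed by pin tool. Dosing was either single-drug or a fixed anchor-drug dose plus five library-drug doses (not always all listed) in √10 steps. After 5 days, nuclei were stained in one fix-and-stain step and counted on 4× images, and relative viability is the nuclei count of treated wells over that of vehicle wells, given as the median of duplicate plates.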

Compound in experiment [2]: CN(C)C[C@@H]1CCn2cc(c3ccccc32)C2=C(C(=O)NC2=O)c2cn(c3ccccc23)CCO1 [Ruboxistaurin] + COc1cc2c(Oc3ccc(NC(=O)C4(C(=O)Nc5ccc(F)cc5)CC4)cc3F)ccnc2cc1OCCCN1CCOCC1 [Foretinib] (partner 0.25 µM)
The procedure, abridged: as §1

Compound in experiment [3]: CN(C)C[C@@H]1CCn2cc(c3ccccc32)C2=C(C(=O)NC2=O)c2cn(c3ccccc23)CCO1 [Ruboxistaurin] + COc1cccc2cc(-c3nc([C@H]4CC[C@H](C(=O)O)CC4)n4ncnc(N)c34)[nH]c12 [OSI-027] (partner 0.5 µM)
The procedure, abridged: as §1

Compound in experiment [4]: CN(C)C[C@@H]1CCn2cc(c3ccccc32)C2=C(C(=O)NC2=O)c2cn(c3ccccc23)CCO1 [Ruboxistaurin] + Cc1cc(Nc2cc(N3CCN(C)CC3)nc(Sc3ccc(NC(=O)C4CC4)cc3)n2)n[nH]1 [Tozasertib] (partner 0.1 µM)
Put shortly: as §1

Compound in experiment [5]: CN(C)C[C@@H]1CCn2cc(c3ccccc32)C2=C(C(=O)NC2=O)c2cn(c3ccccc23)CCO1 [Ruboxistaurin] + Nc1nc2[nH]cc(CCc3ccc(C(=O)N[C@@H](CCC(=O)O)C(=O)O)cc3)c2c(=O)[nH]1 [Pemetrexed] (partner 0.2 µM)
Put shortly:
as §1

Consider 201T, for which the relative viability in experiment [1] (first compound 0.08 µM) was determined as 1.21; in experiment [1] (first compound 0.8 µM), 1.18; in experiment [1] (first compound 2.53 µM) it was 1.24; in experiment [1] (first compound 8 µM) it was 1.25; in experiment [2] (first compound 0.08 µM), 1.17; in experiment [2] (first compound 0.8 µM), 1.02. In addition, the relative viability came to 1.19 in experiment [2] (first compound 2.53 µM); 0.995 in experiment [2] (first compound 8 µM); 0.694 in experiment [3] (first compound 0.08 µM); 0.723 in experiment [3] (first compound 0.8 µM); 0.675 in experiment [3] (first compound 2.53 µM); 0.59 in experiment [3] (first compound 8 µM). The relative viability came to 0.993 in experiment [4] (first compound 0.08 µM); 0.815 in experiment [4] (first compound 0.8 µM); 0.976 in experiment [4] (first compound 2.53 µM); 0.825 in experiment [4] (first compound 8 µM); 0.31 in experiment [5] (first compound 0.08 µM); 0.327 in experiment [5] (first compound 0.8 µM). Also, the relative viability in experiment [5] (first compound 2.53 µM) came to 0.311; in experiment [5] (first compound 8 µM), 0.31.

With A549, the relative viability was 1.23 in experiment [1] (first compound 0.08 µM); 1.18 in experiment [1] (first compound 0.8 µM); 1.16 in experiment [1] (first compound 2.53 µM); 0.99 in experiment [1] (first compound 8 µM); 1.04 in experiment [2] (first compound 0.08 µM); 0.935 in experiment [2] (first compound 0.8 µM). For the same cell line, the relative viability in experiment [2] (first compound 2.53 µM) is 1.06; in experiment [2] (first compound 8 µM), 0.962.

For the cell line A-427, the relative viability stood at 0.947 in experiment [1] (first compound 0.08 µM); 0.816 in experiment [1] (first compound 0.8 µM); 0.831 in experiment [1] (first compound 2.53 µM); 0.752 in experiment [1] (first compound 8 µM); 1.01 in experiment [2] (first compound 0.08 µM); 0.952 in experiment [2] (first compound 0.8 µM). Moreover, the relative viability in experiment [2] (first compound 2.53 µM) came out at 0.928; in experiment [2] (first compound 8 µM) it was 0.659; in experiment [3] (first compound 0.08 µM), 0.506; in experiment [3] (first compound 0.8 µM) it was 0.406; in experiment [3] (first compound 2.53 µM) it was 0.458; in experiment [3] (first compound 8 µM), 0.343. Moreover, the relative viability in experiment [4] (first compound 0.08 µM) was 0.19; in experiment [4] (first compound 0.8 µM), 0.184; in experiment [4] (first compound 2.53 µM) it was 0.232; in experiment [4] (first compound 8 µM), 0.157; in experiment [5] (first compound 0.08 µM), 0.994; in experiment [5] (first compound 0.8 µM), 0.926. The relative viability in experiment [5] (first compound 2.53 µM) came to 0.958; in experiment [5] (first compound 8 µM), 0.923.

Consider ABC-1, for which the relative viability in experiment [2] (first compound 0.08 µM) is 1.21; in experiment [2] (first compound 0.8 µM) it was 1.13; in experiment [2] (first compound 2.53 µM), 1.26; in experiment [2] (first compound 8 µM) it was 1.11; in experiment [3] (first compound 0.08 µM), 0.692; in experiment [3] (first compound 0.8 µM) it was 0.386. Besides, the relative viability amounted to 0.481 in experiment [3] (first compound 2.53 µM); 0.331 in experiment [3] (first compound 8 µM); 0.178 in experiment [4] (first compound 0.08 µM); 0.163 in experiment [4] (first compound 0.8 µM); 0.184 in experiment [4] (first compound 2.53 µM); 0.22 in experiment [4] (first compound 8 µM).

With BEN, the relative viability in experiment [1] (first compound 0.08 µM) was 0.0424; in experiment [1] (first compound 0.8 µM), 0.0646; in experiment [1] (first compound 2.53 µM), 0.0707; in experiment [1] (first compound 8 µM), 0.114; in experiment [2] (first compound 0.08 µM), 0.725; in experiment [2] (first compound 0.8 µM), 0.722. Also, the relative viability in experiment [2] (first compound 2.53 µM) was 0.712; in experiment [2] (first compound 8 µM), 0.49; in experiment [3] (first compound 0.08 µM), 0.347; in experiment [3] (first compound 0.8 µM), 0.31; in experiment [3] (first compound 2.53 µM) it was 0.262; in experiment [3] (first compound 8 µM) it was 0.286. The relative viability in experiment [4] (first compound 0.08 µM) is 0.492; in experiment [4] (first compound 0.8 µM), 0.45; in experiment [4] (first compound 2.53 µM), 0.498; in experiment [4] (first compound 8 µM), 0.483; in experiment [5] (first compound 0.08 µM), 0.801; in experiment [5] (first compound 0.8 µM), 0.695. The relative viability in experiment [5] (first compound 2.53 µM) amounted to 0.716; in experiment [5] (first compound 8 µM), 0.528.

On to CAL-12T, for which the relative viability was 1.22 in experiment [1] (first compound 0.08 µM); 1.28 in experiment [1] (first compound 0.8 µM); 1.31 in experiment [1] (first compound 2.53 µM); 1.26 in experiment [1] (first compound 8 µM); 1.28 in experiment [2] (first compound 0.08 µM); 1.18 in experiment [2] (first compound 0.8 µM). Besides, the relative viability in experiment [2] (first compound 2.53 µM) was determined as 1.16; in experiment [2] (first compound 8 µM) it was 1.16; in experiment [3] (first compound 0.08 µM), 0.797; in experiment [3] (first compound 0.8 µM), 0.449; in experiment [3] (first compound 2.53 µM), 0.69; in experiment [3] (first compound 8 µM) it was 0.391. In addition, the relative viability in experiment [4] (first compound 0.08 µM) amounted to 0.371; in experiment [4] (first compound 0.8 µM), 0.292; in experiment [4] (first compound 2.53 µM), 0.301; in experiment [4] (first compound 8 µM), 0.211; in experiment [5] (first compound 0.08 µM), 1.35; in experiment [5] (first compound 0.8 µM), 1.19. Further, the results for the relative viability in experiment [5] (first compound 2.53 µM) and in experiment [5] (first compound 8 µM) were 1.12 and 1.28, respectively.

Regarding COR-L23, the relative viability in experiment [1] (first compound 0.08 µM) is 1.16; in experiment [1] (first compound 0.8 µM), 1.01; in experiment [1] (first compound 2.53 µM), 1.03; in experiment [1] (first compound 8 µM), 0.998; in experiment [2] (first compound 0.08 µM), 1.06; in experiment [2] (first compound 0.8 µM), 0.951. Moreover, the relative viability turned out to be 1.11 in experiment [2] (first compound 2.53 µM); 1.05 in experiment [2] (first compound 8 µM); 0.759 in experiment [3] (first compound 0.08 µM); 0.637 in experiment [3] (first compound 0.8 µM); 0.712 in experiment [3] (first compound 2.53 µM); 0.391 in experiment [3] (first compound 8 µM). Besides, the relative viability came to 0.221 in experiment [4] (first compound 0.08 µM); 0.167 in experiment [4] (first compound 0.8 µM); 0.202 in experiment [4] (first compound 2.53 µM); 0.153 in experiment [4] (first compound 8 µM); 0.193 in experiment [5] (first compound 0.08 µM); 0.182 in experiment [5] (first compound 0.8 µM). Also, the figures for the relative viability in experiment [5] (first compound 2.53 µM) and in experiment [5] (first compound 8 µM) were 0.204 and 0.192, respectively.

Consider COR-L 105, for which the relative viability in experiment [1] (first compound 0.08 µM) was 0.741; in experiment [1] (first compound 0.8 µM), 0.64; in experiment [1] (first compound 2.53 µM) it was 0.776; in experiment [1] (first compound 8 µM), 0.807; in experiment [2] (first compound 0.08 µM) it was 1.37; in experiment [2] (first compound 0.8 µM) it was 0.826. The relative viability in experiment [2] (first compound 2.53 µM) stood at 1.1; in experiment [2] (first compound 8 µM), 0.87; in experiment [3] (first compound 0.08 µM) it was 0.881; in experiment [3] (first compound 0.8 µM), 0.565; in experiment [3] (first compound 2.53 µM), 0.62; in experiment [3] (first compound 8 µM), 0.443. The relative viability in experiment [4] (first compound 0.08 µM) was determined as 0.385; in experiment [4] (first compound 0.8 µM) it was 0.367; in experiment [4] (first compound 2.53 µM), 0.304; in experiment [4] (first compound 8 µM) it was 0.254; in experiment [5] (first compound 0.08 µM) it was 1.3; in experiment [5] (first compound 0.8 µM), 0.912. Also, the relative viability in experiment [5] (first compound 2.53 µM) is 1.05; in experiment [5] (first compound 8 µM) it was 1.26.
